ChEMBL document CHEMBL5506015, “Discovery of a Meisoindigo-Derived PROTAC as the ATM Degrader: Revolutionizing Colorectal Cancer Therapy via Synthetic Lethality with ATR Inhibitors” (J Med Chem, 2024)
Calls of active or inactive are those of the source. The calls are words filed in the database; no cut-off is given here.

Experiments:
[1] = test system: LoVo; assay: Cytotoxicity against human LoVo cells assessed as reduction in cell viability incubated for 48 hrs by MTT assay
[2] = test system: SW-620; assay: Cytotoxicity against human SW620 cells assessed as reduction in cell viability incubated for 48 hrs by MTT assay; settings: SW-620, 48 h
[3] = Cytotoxicity against human HIEC-6 cells assessed as reduction in cell viability incubated for 48 hrs by MTT assay; assay type: toxicity, cell-based; settings: HIEC-6 cells
[4] = test system: K562; assay: Cytotoxicity against human K562 cells assessed as reduction in cell viability incubated for 48 hrs by MTT assay; settings: K562, 48 h
[5] = test system: SW13; assay: Cytotoxicity against human SW13 cells assessed as reduction in cell viability incubated for 48 hrs by MTT assay; settings: SW13, 48 h
[6] = test system: A2780; assay: Cytotoxicity against human A2780 cells assessed as reduction in cell viability incubated for 48 hrs by MTT assay; settings: A2780, 48 h
[7] = test system: SW480; assay: Cytotoxicity against human SW480 cells assessed as reduction in cell viability incubated for 48 hrs by MTT assay; settings: SW480, 48 h
[8] = test system: COLO 205; assay: Cytotoxicity against human COLO 205 cells assessed as reduction in cell viability incubated for 48 hrs by MTT assay; settings: COLO 205, 48 h
[9] = test system: RKO; assay: Cytotoxicity against human RKO cells assessed as reduction in cell viability incubated for 48 hrs by MTT assay
[10] = test system: HCT-116; assay: Cytotoxicity against human HCT-116 cells assessed as reduction in cell viability incubated for 48 hrs by MTT assay; settings: HCT-116, 48 h
[11] = test system: NCI-H358; assay: Cytotoxicity against human NCI-H358 cells assessed as reduction in cell viability incubated for 48 hrs by MTT assay; settings: NCI-H358, 48 h
[12] = test system: SW-620; assay: Downregulation of PROX1 level in human SW620 cells at 1.25 to 10 uM measured after 12 hrs by immunoblot analysis; assay type: functional, cell-based; settings: dose 1.25-10 µM
[13] = test system: SW-620; assay: Effect on ATM mRNA level in human SW620 cells at 2.5 to 10 uM incubated for 12 hr by RT-PCR analysis; assay type: functional, cell-based; settings: dose 2.5-10 µM
[14] = test system: SW-620; assay: Downregulation of KDM4B level in human SW620 cells at 1.25 to 10 uM measured after 12 hrs by immunoblot analysis; assay type: functional, cell-based; settings: dose 1.25-10 µM
[15] = test system: SW-620; assay: Antitumor activity against human SW620 cells xenografted in Balb/c nude mouse model assessed as decrease in pro-caspase 3 level at 25 mg/kg/day measured after 14 days by Western blot analysis; assay type: functional, organism-based; settings: time 14.0 day
[16] = test system: SW-620; assay: Antitumor activity against human SW620 cells xenografted in Balb/c nude mouse model assessed as increase in cleaved-caspase 3 level at 25 mg/kg/day measured after 14 days by Western blot analysis; assay type: functional, organism-based; settings: time 14.0 day
[17] = test system: SW-620; assay: Antitumor activity against human SW620 cells xenografted in Balb/c nude mouse model assessed as fibrosis at 25 mg/kg/day measured after 14 days by H and E staining based analysis; assay type: functional, organism-based; settings: time 14.0 day
[18] = test system: SW-620; assay: Antitumor activity against human SW620 cells xenografted in Balb/c nude mouse model assessed as decrease in ATM protein level at 25 mg/kg/day measured after 14 days by Western blot analysis; assay type: functional, organism-based; settings: time 14.0 day
[19] = test system: SW-620; assay: Antitumor activity against human SW620 cells xenografted in Balb/c nude mouse model assessed as reduction in tumor load at 25 mg/kg/day administered for 14 days by vernier caliper based analysis; assay type: functional, organism-based; settings: time 14.0 day
[20] = test system: SW-620; assay: Antitumor activity against human SW620 cells xenografted in Balb/c nude mouse model assessed as necrosis at 25 mg/kg/day measured after 14 days by H and E staining based analysis; assay type: functional, organism-based; settings: time 14.0 day
[21] = test system: SW-620; assay: Antitumor activity against human SW620 cells xenografted in Balb/c nude mouse model assessed as decrease in BCL2 protein level at 25 mg/kg/day measured after 14 days by Western blot analysis; assay type: functional, organism-based; settings: time 14.0 day
[22] = test system: SW-620; assay: Antitumor activity against human SW620 cells xenografted in Balb/c nude mouse model assessed as inflammatory cell infiltration at 25 mg/kg/day measured after 14 days by H and E staining based analysis; assay type: functional, organism-based; settings: time 14.0 day
[23] = test system: SW-620; assay: Antitumor activity against human SW620 cells xenografted in Balb/c nude mouse model assessed as increase in gamma-H2AX at 25 mg/kg/day measured after 14 days by Western blot analysis; assay type: functional, organism-based; settings: time 14.0 day
[24] = test system: SW-620; assay: Antitumor activity against human SW620 cells xenografted in Balb/c nude mouse model assessed as decrease in cleaved caspase 3 level at 25 mg/kg/day measured after 14 days by Western blot analysis; assay type: functional, organism-based; settings: time 14.0 day
[25] = test system: SW-620; assay: Antitumor activity against human SW620 cells xenografted in Balb/c nude mouse model assessed as increase in gamma-H2AX level at 25 mg/kg/day measured after 14 days by Western blot analysis; assay type: functional, organism-based; settings: time 14.0 day

With `Cc1ncsc1-c1ccc(CNC(=O)[C@@H]2C[C@@H](O)CN2C(=O)[C@@H](NC(=O)OC(C)(C)C)C(C)(C)C)cc1` the IC50 [1] was > 20 µM, the IC50 [2] was > 20 µM and the IC50 at 48 h [3] was > 20 µM. The IC50 [4] was > 20 µM, the IC50 [5] was > 20 µM and the IC50 [6] was > 20 µM. For the same compound, the IC50 [7] was > 20 µM, the IC50 [8] was > 20 µM and the IC50 [9] was > 20 µM. For the same compound, the IC50 [10] was > 20 µM and the IC50 [11] was > 20 µM.

Compound `CN1C(=O)/C(=C2/C(=O)Nc3ccccc32)c2ccccc21` [MEISOINDIGO] has an IC50 [1] of 12.7 µM, an IC50 [2] of 9.14 µM and an IC50 at 48 h [3] of 12 µM. The IC50 [4] was 8.17 µM, the Activity [12] was “Active” and the IC50 [5] was 12.9 µM. The IC50 [6] was 6.57 µM, the IC50 [7] was 2.8 µM and the IC50 [8] was 7.55 µM. For the same compound, the Activity [13] was “inactive”, the IC50 [9] was 11.6 µM and the Activity [14] was “Active”. The IC50 [10] was 5.36 µM and the IC50 [11] was > 20 µM.

With `O=c1[nH]cc(F)c(=O)[nH]1` [FLUOROURACIL] the IC50 [1] was 9.89 µM, the IC50 [2] was 13.8 µM and the IC50 at 48 h [3] was 18.6 µM. The IC50 [4] was > 20 µM, the IC50 [5] was > 20 µM and the IC50 [6] was 12.9 µM. For the same compound, the IC50 [7] was 12.6 µM, the IC50 [8] was 4.54 µM and the IC50 [9] was 3.43 µM. For the same compound, the IC50 [11] was > 20 µM.

With `C[C@@H]1COCCN1c1cc(C2([S@](C)(=N)=O)CC2)nc(-c2cc[nH]c3nccc2-3)n1` the Activity [15] was “Active”, the Activity [16] was “Active” and the Activity [17] was “Active”. For the same compound, the Activity [18] was “Active”, the Activity [19] was “Active” and the Activity [20] was “Active”. For the same compound, the Activity [21] was “Active”, the Activity [22] was “Active” and the Activity [23] was “Active”. The Activity [24] was “Active” and the Activity [25] was “Active”.

In the case of `CC(C)n1c(=O)n(C)c2cnc3cc(F)c(-c4ccc(OCCCN5CCCCC5)nc4)cc3c21` [AZD-1390], the IC50 [1] is reported as > 20 µM, the IC50 [2] is reported as > 20 µM and the IC50 at 48 h [3] is reported as > 20 µM. For the same compound, the IC50 [4] was > 20 µM, the IC50 [5] was > 20 µM and the IC50 [6] was > 20 µM. For the same compound, the IC50 [7] was > 20 µM, the IC50 [8] was > 20 µM and the IC50 [9] was > 20 µM. The IC50 [10] was > 20 µM and the IC50 [11] was > 20 µM.

For `O=C1CCC(N2Cc3c(NCCCCCCn4cc(CCCN5C(=O)/C(=C6/C(=O)Nc7ccccc76)c6ccccc65)nn4)cccc3C2=O)C(=O)N1` (stereo not drawn), the IC50 [1] was 15.1 µM, the IC50 [2] was 7.76 µM and the IC50 at 48 h [3] was > 20 µM. For the same compound, the IC50 [4] was > 20 µM, the IC50 [5] was > 20 µM and the IC50 [6] was 7.47 µM. The IC50 [7] was > 20 µM, the IC50 [8] was > 20 µM and the IC50 [9] was 6.79 µM. The IC50 [10] was > 20 µM and the IC50 [11] was > 20 µM.
